Data published in BindingDB's records for patent US12286435 (Bionna (Beijing) Medical Technology, 2025).
pKi: −log10 of the molar value.

Assays:
[1] = molecular target: T1, Bromodomain-containing protein 4 [58-164] (Homo sapiens, UniProt O60885); test: Determination of the value of binding affinity constant (KO between the compound and BRD4 BD1 protein
T1 construct: 58-164
Procedure: The multifunctional microplate reader was a product of TECAN, model: SPARK 10M. Buffer: 100 mM potassium phosphate (pH 6.5), 2% ethylene glycol (Sigma) and 0.01% Trition X-100 (Sigma). The experimental water was Millipore-Q pure water.The specific experimental steps were as follows.First, the compound to be tested was dissolved in ethylene glycol to prepare into a 10 mM standard stock solution. Subsequently, the standard stock solution of the compound to be tested was diluted into a working sample solution with the buffer in an EP tube and ready for use. The concentration of the prepared working sample solution was 5 times of the highest sample concentration required on the test plate (5×test compound solution).[…] of a 5× test compound solution of a sample A was added to wells B1-B3 of a 96-well plate, and 40 μL of a 5× test compound solution of a sample B was added to wells B7-B9 of the 96-well plate, respectively. 20 uL of the buffer was added to the remaining wells, except for wells B1-B3 and B7-B9. Then, 20 uL of a solution was taken from wells B1-B3 to C1-C3, and this 2-fold dilution was repeated from C1-C3 until H4-H6; in the same way, 20 uL of a solution was taken from B7-B9 to C7-C9, this 2-fold dilution was repeated from C7-C9 until H10-H12.

[2] = molecular target: T2, Bromodomain-containing protein 4 [348-457] (Human, UniProt O60885); test: Determination of the value of binding affinity constant (KO between the compound and BRD4 BD2 protein
T2 construct: 348-457
Procedure: The multifunctional microplate reader was a product of TECAN, model: SPARK 10M. Buffer: 100 mM potassium phosphate (pH 6.5), 2% ethylene glycol (Sigma) and 0.01% Trition X-100 (Sigma). The experimental water was Millipore-Q pure water.The Ki value of the compound and BRD4 BD2 protein was measured according to the FP test procedures for detecting the Ki value of the compound and BRD4 BD1 protein except that the BRD4 BD1 protein was replaced with the BRD4 BD2 protein.

## CCCCN1CC=C(c2ccc3c(c2)C(Nc2cccc(Cl)c2)CCn2nnc(C)c2-3)CC1 (configuration not stated) [US12286435, Code BH108]
[1]
  pKi: 6.35
[2]
  pKi: 7.61

## COC(=O)Cc1ccc(NC2CCn3nnc(C)c3-c3ccc(-c4cnn(C)c4)cc32)cc1 (configuration not stated) [US12286435, Code LB38]
[1]
  pKi: 7.35
[2]
  pKi: 8.03

## Cc1nnn2c1-c1ccc(-c3cnn(C)c3)cc1C(Nc1cccc(CCO)c1)CC2 (configuration not stated) [US12286435, Code LB71]
[1]
  pKi: 7.04
[2]
  pKi: 7.52

## COC(=O)Cc1ccccc1NC1CCn2nncc2-c2ccc(-c3cnn(C)c3)cc21 (configuration not stated) [US12286435, Code LB175]
[1]
  pKi: 7.36
[2]
  pKi: 7.73

## Cc1nnn2c1-c1ccc(C3=CCNCC3)cc1C(Nc1c(F)cccc1Cl)CC2 (configuration not stated) [US12286435, Code LC198]
[1]
  pKi: 5.53
[2]
  pKi: 6.82

## Cc1nnn2c1-c1ccc(C3=CCOCC3)cc1C(Nc1cccc(Cl)c1)CC2 (configuration not stated) [US12286435, Code LD31]
[1]
  pKi: 7.41
[2]
  pKi: 7.77
